Like-named read-outs stand apart in the source and are kept apart here.
Assays:
[1] = Musculoskeletal adverse events, study A4141001; format: in vivo, human
[2] = tested on: STAM model of non-alcoholic steatohepatitis (NASH)
Method: Telmisartan (Micardis®) was purchased from Boehringer Ingelheim GmbH (Germany) and dissolved in pure water.
Telmisartan was administered at a dose of 10 mg/kg once daily.
Eight-hour fasting blood glucose was measured in whole blood using Life Check (EIDIA Co. Ltd., Japan). For plasma biochemistry, eight-hour fasting blood was collected in polypropylene tubes with anticoagulant (Novo-Heparin, Mochida Pharmaceutical, Japan) and centrifuged at 1,000×g for 15 minutes at 4° C. The supernatant was collected and stored at −80° C. until use. Plasma insulin levels were quantified by Ultra Sensitive Mouse Insulin ELISA kit (Morinaga Institute of Biological Science, Inc., Japan).
On the day of termination, non-fasting blood glucose was measured in whole blood using Life Check. For plasma biochemistry, non-fasting blood was collected in polypropylene tubes with anticoagulant (Novo-Heparin) and centrifuged at 1,000×g for 15 minutes at 4° C. The supernatant was collected and stored at −80° C. until use. Plasma ALT, AST, ALP, GGT, BUN, creatinine and total bilirubin levels were measured by FUJI DRI-CHEM 7000 (Fujifilm Corporation, Japan). Plasma ketone body levels were quantified by EnzyChrom™ Ketone Body Assay Kit (BioAssay Systems, USA).
Liver samples were homogenized in chloroform-methanol (2:1, v/v) and incubated overnight at room temperature. After washing with chloroform-methanol-water (8:4:3, v/v/v), the extracts were evaporated to dryness, and dissolved in isopropanol. Liver triglyceride content was measured by Triglyceride E-test (Wako Pure Chemical Industries). […]
Statistical analyses were performed using Bonferroni Multiple Comparison Test on GraphPad Prism 6 (GraphPad Software Inc., USA). […] Results were expressed as mean±SD.
The viability, clinical signs and behavior were monitored daily. Body weight was recorded before the treatment. […] The animals were sacrificed by exsanguinations through direct cardiac puncture under isoflurane anesthesia (Pfizer Inc.) at 9 weeks of age.

[3] = male, Wistar, rat, in vivo, po, 10 mg/kg
Method: Dose solution was prepared by dissolving labeled drug in 0.45 mL ethanol and 4.05 mL 0.5% methylcellulose in water. […] Final specific activity of dose solution was 10.37 μCi/mg.
Male Wistar rats with an average weight of 202 g were fasted overnight prior to dosing. […] Carcasses were rapidly frozen in dry ice/hexane mixture and prepared for whole body sectioning and autoradiography. Sections of 50 μm thickness were air dried at −20° C. and applied to BioMax scientific imaging film (Eastman Kodak, Rochester, N.Y.) or phosphor imaging plates for autoradiographic exposure (Molecular Dynamics, Sunnyvale, Calif.). Carbon-14 standards (American Radiolabeled Chemicals, St. Louis) were included on representative films and plates for calibration of the analyzer. Processed films were digitized with the analyzer scanner (Loats INQUIRY image analysis system, Loats Associates, Westminster, Md.), and radioactivity remaining in tissues was determined by quantitative video densitometric analysis of digital images. Imaging plates were scanned after 1-week exposure. Resulting electronic images were used for preliminary evaluation of distribution.

[4] = A4141001, patient type IIa + IIb

**Q.** Which results are given for `CC(C)c1c(C(=O)Nc2ccccc2)c(-c2ccccc2)c(-c2ccc(F)cc2)n1CC[C@@H](O)C[C@@H](O)CC(=O)O` [Atorvastatin, reference compound]?
**A.** % = the percent of patients experiencing a musculoskeletal adverse event ([1]; A4141001, patient type IIa): 9.1%; No = the number of muscle skeletal adverse events ([1]; A4141001, patient type IIa): 2; % = the percent of patients experiencing a musculoskeletal adverse event [1, 4]: 13.5%; No = the number of muscle skeletal adverse events [1, 4]: 7; % = the percent of patients experiencing a musculoskeletal adverse event ([1]; A4141001, patient type IIb): 16.7%; No = the number of muscle skeletal adverse events ([1]; A4141001, patient type IIb): 5

**Q.** Which results are given for `CCCc1nc2c(C)cc(-c3nc4ccccc4n3C)cc2n1Cc1ccc(-c2ccccc2C(=O)O)cc1` [Telmisartan, reference compound]?
**A.** NAFLD Activity score, NAS (mean ± SD) ([2]; STAM NASH mice, 10 mg/kg PO QD 6-9 wks, 10 mg/kg): significant reduction; mortality during the treatment period ([2]; STAM NASH mice, 10 mg/kg PO QD, before reaching Day 21): one mouse was found dead; Fasting blood glucose (mean ± SD) ([2]; STAM NASH mice, 10 mg/kg PO QD, Day 18, 8 hours of fasting, listed as telemisartan, 10 mg/kg): significant increase; Liver triglyceride (mean ± SD) ([2]; STAM NASH mice, 10 mg/kg PO QD, Day 21, listed as telemisartan, 10 mg/kg): significant decrease; Non-fasting blood glucose (mean ± SD) ([2]; STAM NASH mice, 10 mg/kg PO QD, termination (Day 21), listed as telemisartan, 10 mg/kg): significant increase; fibrosis area compared with the Vehicle in NASH group ([2]; STAM NASH mice, all treatment groups (gemcabene 30, 100, 300 mg/kg; telmisartan 10 mg/kg)): significantly decreased; Plasma ALP (mean ± SD) ([2]; mouse, in vivo, po, 10 mg/kg): significant increases; Plasma BUN (mean ± SD) ([2]; mouse, in vivo, po, 10 mg/kg): significant increase; Plasma GGT (mean ± SD) ([2]; mouse, in vivo, po, 10 mg/kg): 1 ± 0 U/L; Plasma creatinine (mean ± SD) ([2]; mouse, in vivo, po, 10 mg/kg): 0.1 ± 0.0 mg/dL

**Q.** With `CC(C)(CCCCOCCCCC(C)(C)C(=O)O)C(=O)O` [[14C] gemcabene] as the compound, how does the “radioequivalents remaining in Adrenal” value ([3]; 1 h) read?
**A.** 6.05 μg equivalents/g

**Q.** What about the “radioequivalents remaining in Blood” value ([3]; 1 h) of the same compound?
**A.** 15.46 μg equivalents/g

**Q.** And the “radioequivalents remaining in Brain” value ([3]; 1 h)?
**A.** 0.41 μg equivalents/g

**Q.** And the “radioequivalents remaining in Kidney” value ([3]; 1 h)?
**A.** 18.75 μg equivalents/g

**Q.** What about the “radioequivalents remaining in Liver” value ([3]; 1 h) of the same compound?
**A.** 35.78 μg equivalents/g

**Q.** And the “radioequivalents remaining in Lung” value ([3]; 1 h)?
**A.** 11.69 μg equivalents/g

**Q.** And the “radioequivalents remaining in Muscle” value ([3]; 1 h)?
**A.** 1.35 μg equivalents/g

**Q.** What about the “radioequivalents remaining in Adrenal” value ([3]; 4 h) of the same compound?
**A.** 4.76 μg equivalents/g

**Q.** What about the “radioequivalents remaining in Blood” value ([3]; 4 h) of the same compound?
**A.** 13.65 μg equivalents/g

**Q.** And the “radioequivalents remaining in Brain” value ([3]; 4 h)?
**A.** 0.47 μg equivalents/g

**Q.** What about the “radioequivalents remaining in Kidney” value ([3]; 4 h) of the same compound?
**A.** 17.84 μg equivalents/g

**Q.** And the “radioequivalents remaining in Liver” value ([3]; 4 h)?
**A.** 37.08 μg equivalents/g

**Q.** And the “radioequivalents remaining in Lung” value ([3]; 4 h)?
**A.** 10.15 μg equivalents/g

**Q.** What about the “radioequivalents remaining in Muscle” value ([3]; 4 h) of the same compound?
**A.** 1.40 μg equivalents/g

**Q.** What about the “radioequivalents remaining in Adrenal” value ([3]; 8 h) of the same compound?
**A.** 4.29 μg equivalents/g

**Q.** And the “radioequivalents remaining in Blood” value ([3]; 8 h)?
**A.** 9.75 μg equivalents/g

**Q.** And the “radioequivalents remaining in Brain” value ([3]; 8 h)?
**A.** 0.43 μg equivalents/g

**Q.** What about the “radioequivalents remaining in Kidney” value ([3]; 8 h) of the same compound?
**A.** 16.44 μg equivalents/g

**Q.** What about the “radioequivalents remaining in Liver” value ([3]; 8 h) of the same compound?
**A.** 27.42 μg equivalents/g

**Q.** And the “radioequivalents remaining in Lung” value ([3]; 8 h)?
**A.** 7.59 μg equivalents/g

**Q.** And the “radioequivalents remaining in Muscle” value ([3]; 8 h)?
**A.** 0.99 μg equivalents/g

**Q.** And the “radioequivalents remaining in Adrenal” value ([3]; 24 h)?
**A.** 1.42 μg equivalents/g

**Q.** What about the “radioequivalents remaining in Blood” value ([3]; 24 h) of the same compound?
**A.** 4.69 μg equivalents/g

**Q.** And the “radioequivalents remaining in Brain” value ([3]; 24 h)?
**A.** 0.24 μg equivalents/g

**Q.** What about the “radioequivalents remaining in Kidney” value ([3]; 24 h) of the same compound?
**A.** 17.45 μg equivalents/g

**Q.** What about the “radioequivalents remaining in Liver” value ([3]; 24 h) of the same compound?
**A.** 24.35 μg equivalents/g

**Q.** What about the “radioequivalents remaining in Lung” value ([3]; 24 h) of the same compound?
**A.** 3.58 μg equivalents/g

**Q.** And the “radioequivalents remaining in Muscle” value ([3]; 24 h)?
**A.** 0.45 μg equivalents/g

**Q.** What about the “radioequivalents remaining in Adrenal” value ([3]; 48 h) of the same compound?
**A.** 0.22 μg equivalents/g

**Q.** What about the “radioequivalents remaining in Blood” value ([3]; 48 h) of the same compound?
**A.** 0.44 μg equivalents/g

**Q.** And the “radioequivalents remaining in Kidney” value ([3]; 48 h)?
**A.** 7.23 μg equivalents/g

**Q.** And the “radioequivalents remaining in Liver” value ([3]; 48 h)?
**A.** 3.64 μg equivalents/g

**Q.** What about the “radioequivalents remaining in Lung” value ([3]; 48 h) of the same compound?
**A.** 0.36 μg equivalents/g

**Q.** And the “radioequivalents remaining in Kidney” value ([3]; 96 h)?
**A.** 0.83 μg equivalents/g

**Q.** And the “radioequivalents remaining in Liver” value ([3]; 96 h)?
**A.** 0.24 μg equivalents/g
